One test relates to PC3 (prostate). The test can be described thus: In vitro cytotoxic activity (MTT) assay, PC3. Particulars: Homo sapiens; PC3 (prostate) cells, exposed for 96 hours, 50% inhibition of cell proliferation; read-out: Cytotoxicity activity IC50. Type of test: cell-based. Here is the method:
(§1) Compounds 1-16 were screened for their in vitro cytotoxic activity utilizing a 3-(4,5-dimethyl-thiazol-2-yl)-2,5-diphenyltetrazolium bromide (MTT) assay against selected cancer human cell lines consisting of PC3 (prostate), HCT116 (colon), A375 (melanoma), H1299 (lung), MIAPaCa-2 (pancreas), HL60 (leukemia), MCF7 (breast), MDA-MB-231 (breast) (T. Mosmann, J. Immunol. Meth., 1983, 65, 55-63). The cells were cultured at 37° C. in RMPI1640 medium supplemented with 10% fetal bovine serum, 50 IU/mL penicillin, and 50 μg/mL streptomycin in a 5% CO2 incubator. All cells were sub-cultured 3 times/week by trypsinisation. Viable cells were seeded and allowed to adhere for 12 hours before a test drug was added in 96-well plates at an initial density of 1.0×10^5 cells/mL. Tumor cell lines were separately exposed to various concentrations of the tested compounds followed by incubation at a temperature of 37° C. during 96 hours inside a medium of fresh RMPI 1640. Cells were subsequently incubated at 37° C. using MTT at 0.5 mg/mL during 4 hours. After removal of supernatant, formazan crystals were dissolved in isopropanol and the optical density was measured at 570 nm. CX-4945 was used as a positive control.

Another test concerns HCT116 (colon). Nature of the test: In vitro cytotoxic activity (MTT) assay, HCT116. It counts as cell-based. The note with it: Homo sapiens, HCT-116; HCT116 (colon) cells, exposed for 96 hours, 50% inhibition of cell proliferation; read-out: Cytotoxicity activity IC50. The protocol: as §1
In the next test the test system is A375 (melanoma). The test can be described thus: In vitro cytotoxic activity (MTT) assay, A375. Type of test: cell-based. Particulars: Homo sapiens, A-375; A375 (melanoma) cells, exposed for 96 hours, 50% inhibition of cell proliferation; read-out: Cytotoxicity activity IC50. Here is the method:
as §1

The subject of the next test is H1299 (lung). Nature of the test: In vitro cytotoxic activity (MTT) assay, H1299. Type of test: cell-based. Particulars: Homo sapiens, NCI-H1299; H1299 (lung) cells, exposed for 96 hours, 50% inhibition of cell proliferation; read-out: Cytotoxicity activity IC50. The protocol:
as §1

The subject of the next test is MIAPaCa-2 (pancreas). The test can be described thus: In vitro cytotoxic activity (MTT) assay, MIAPaCa-2. It counts as cell-based. Particulars: Homo sapiens, MIA PaCa-2; MIAPaCa-2 (pancreas) cells, exposed for 96 hours, 50% inhibition of cell proliferation; read-out: Cytotoxicity activity IC50. Here is the method:
as §1

A further test relates to HL60 (leukemia). The test can be described thus: In vitro cytotoxic activity (MTT) assay, HL60. Type of test: cell-based. Particulars: Homo sapiens, HL-60; HL60 (leukemia) cells, exposed for 96 hours, 50% inhibition of cell proliferation; read-out: Cytotoxicity activity IC50. Here is the method:
as §1

The next test deals with MCF7 (breast). The test can be described thus: In vitro cytotoxic activity (MTT) assay, MCF7. Type of test: cell-based. Particulars: Homo sapiens; MCF7 (breast) cells, exposed for 96 hours, 50% inhibition of cell proliferation; read-out: Cytotoxicity activity IC50. Here is the method: as §1
In a further test the test system is MDA-MB-231 (breast). The test can be described thus: In vitro cytotoxic activity (MTT) assay, MDA-MB-231. Particulars: Homo sapiens; MDA-MB-231 (breast) cells, exposed for 96 hours, 50% inhibition of cell proliferation; read-out: Cytotoxicity activity IC50. It counts as cell-based. Here is the method: as §1
Test [1] has as its target T1, recombinant human CK2 (RRββ-holoenzyme) (Homo sapiens, UniProt P68400).
T1 construct: purchased Millipore
Nature of the test: CK2 Kinase Assay (33P-ATP, substrate peptide RRRDDDSDDD). Type of test: biochemical. The note with it: final ATP concentration 15 μM, 10 min at 30° C., eight concentrations; read-out: protein kinase CK2 inhibition IC50. Here is the method:
CK2 Kinase Assay was conducted using the protocol as described in Pierre F. et al; J. Med. Chem. 2011, 54, 635-654. The tested compounds in aqueous solution were added at a volume of 10 μL to a reaction mixture comprising 10 μL of assay dilution buffer (ADB; 20 mM MOPS, pH 7.2, 25 mM β-glycerol phosphate, 5 mM EGTA, 1 mM sodium orthovanadate, and 1 mM dithiothreitol), 10 μL of substrate peptide (RRRDDDSDDD, dissolved in ADB at a concentration of 1 mM), 10 μL of recombinant human CK2 (RRββ-holoenzyme, 25 ng dissolved in ADB; Millipore). Reactions were initiated by the addition of 10 μL of ATP solution (90% 75 mMMgCl2, 75 μM ATP (final ATP concentration: 15 μM) dissolved in ADB; 10% [γ-33P] ATP (stock 1 mCi/100 μL; 3000 Ci/mmol (Perkin-Elmer) and maintained for 10 min at 30° C. The reactions were quenched with 100 μL of 0.75% phosphoric acid and then transferred to and filtered through a phosphor cellulose filter plate (Millipore). After washing each well five times with 0.75% phosphoric acid, the plate was dried under vacuum for 5 min and, following the addition of 15 μL of scintillation fluid to each well, the residual radioactivity was measured using a Wallac luminescence counter. The IC50 values were derived from eight concentrations of test inhibitors.

Drawing on US12024518B1, “Pyrazolo[4,3-C][1,6]naphthyridines as CK2 inhibitors” (KING FAISAL UNIVERSITY, priority 2023, dated 2024), this text covers IC50 for one compound.

T1 sequence (P68400 whole entry): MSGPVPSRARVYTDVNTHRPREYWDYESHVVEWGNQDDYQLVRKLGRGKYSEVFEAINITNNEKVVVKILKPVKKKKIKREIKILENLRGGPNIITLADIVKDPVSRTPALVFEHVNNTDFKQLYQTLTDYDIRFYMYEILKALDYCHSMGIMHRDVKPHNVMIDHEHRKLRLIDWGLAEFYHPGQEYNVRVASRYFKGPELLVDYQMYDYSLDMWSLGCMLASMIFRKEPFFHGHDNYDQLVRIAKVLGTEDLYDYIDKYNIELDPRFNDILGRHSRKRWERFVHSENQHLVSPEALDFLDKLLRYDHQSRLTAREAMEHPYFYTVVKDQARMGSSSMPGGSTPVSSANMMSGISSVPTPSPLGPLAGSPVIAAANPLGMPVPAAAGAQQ
T1 sequence (P67870 whole entry partner): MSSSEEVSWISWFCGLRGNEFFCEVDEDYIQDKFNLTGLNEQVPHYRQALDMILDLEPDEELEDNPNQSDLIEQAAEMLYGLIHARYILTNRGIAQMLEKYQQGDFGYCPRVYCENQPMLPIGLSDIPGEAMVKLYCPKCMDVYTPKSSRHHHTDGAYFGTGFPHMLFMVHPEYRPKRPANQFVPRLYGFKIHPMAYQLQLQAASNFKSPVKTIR

In general, IC50 refers to the concentration that inhibits the measured activity by half. On to `O=C(O)c1n[nH]c2c1c(Nc1cccc(Cl)c1)nc1ccncc12` [Compound 1, 4-((3-chlorophenyl)amino)-1H-pyrazolo[4,3-c][1,6]naphthyridine-3-carboxylic acid], for which the IC50 was found to be 2.5 µM in the test on PC3 (prostate); 1.7 µM in the test with HCT116 (colon); 3.8 µM with A375 (melanoma); 1.9 µM in the test on H1299 (lung); 1.4 µM in the test on MIAPaCa-2 (pancreas); 2.9 µM in the test on HL60 (leukemia). Moreover, the concentration for half-maximal inhibition (IC50) with MCF7 (breast) turned out to be 6.3 µM; in the test on MDA-MB-231 (breast) it was 5.8 µM; in [1], 0.048 µM.
